Legend:
Assay type in all cases: in vivo
[1] = test system: giant foxtail (Setaria faberi); assay: Test G Pre-Emergence Protocol; details: Setaria faberi, pre-emergence, 312 h, evaluated after 13 days
Summary of the method: (§1)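 Scores are visual damage ratings from 0 (no damage) to 100 (total plant kill), taken 13 days after treatment. Compound was sprayed one day post-sowing at 15.625, 62.5 or 250 g/ha in 50:50 acetone/water with 0.5% Tween 20.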

[2] = test system: ivy-leaved morning glory (Ipomoea hederacea); assay: Test G Pre-Emergence Protocol; details: Ipomoea, pre-emergence, 312 h, evaluated after 13 days
Summary of the method: as §1

corn (Zea mays) [3] = assay: Test G Pre-Emergence Protocol; details: Zea mays, pre-emergence, 312 h, evaluated after 13 days
Summary of the method: as §1

[4] = test system: velvetleaf (Abutilon theophrasti); assay: Test G Pre-Emergence Protocol; details: Abutilon theophrasti, pre-emergence, 312 h, evaluated after 13 days
Summary of the method: as §1

[5] = test system: redroot pigweed (Amaranthus retroflexus); assay: Test G Pre-Emergence Protocol; details: Amaranthus retroflexus, pre-emergence, 312 h, evaluated after 13 days
Summary of the method: as §1

[6] = test system: barnyardgrass (Echinochloa crus-galli); assay: Test G Pre-Emergence Protocol; details: Echinochloa crus-galli, pre-emergence, 312 h, evaluated after 13 days
Summary of the method: as §1

[7] = test system: giant foxtail (Setaria faberi); assay: Test G Post-Emergence Protocol; details: Setaria faberi, post-emergence, 312 h
Summary of the method: (§2)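 Scores run 0 (no damage) to 100 (total damage) and were taken 13 days after spraying. Plants had been raised in pots for 8 days under glasshouse control (24/16 °C, 14 h photoperiod, 65% humidity) and then treated at 15.625, 62.5 or 250 g/ha.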

[8] = test system: ivy-leaved morning glory (Ipomoea hederacea); assay: Test G Post-Emergence Protocol; details: Ipomoea, post-emergence, 312 h
Summary of the method: as §2

corn (Zea mays) [9] = assay: Test G Post-Emergence Protocol; details: Zea mays, post-emergence, 312 h
Summary of the method: as §2

[10] = test system: velvetleaf (Abutilon theophrasti); assay: Test G Post-Emergence Protocol; details: Abutilon theophrasti, post-emergence, 312 h
Summary of the method: as §2

[11] = test system: redroot pigweed (Amaranthus retroflexus); assay: Test G Post-Emergence Protocol; details: Amaranthus retroflexus, post-emergence, 312 h
Summary of the method: as §2

[12] = test system: barnyardgrass (Echinochloa crus-galli); assay: Test G Post-Emergence Protocol; details: Echinochloa crus-galli, post-emergence, 312 h
Summary of the method: as §2

SMILES: CN1C[C@@H](c2ccc(C(F)(F)F)nc2)[C@H](C(=O)Nc2cccc(F)n2)C1=O (racemic) [Compound 1491]
- pest or weed control at 15.625 g/ha ([1]; 15.625 g ai/ha, read-out: Foxtail, Giant damage rating (100=total damage to plant; 0=no damage to plant)): 0%
- pest or weed control at 62.5 g/ha ([1]; 62.5 g ai/ha, 100=total damage to plant, 0=no damage to plant, read-out: plant damage rating, Foxtail, Giant): 50%
- pest or weed control at 250 g/ha ([1]; 250 g ai/ha, read-out: Foxtail, Giant damage rating (100=total damage to plant; 0=no damage to plant)): 80%
- pest or weed control at 15.625 g/ha ([2]; 15.625 g ai/ha, read-out: Morning-glory, Ivy-leaved damage rating (100=total damage to plant; 0=no damage to plant)): 0%
- pest or weed control at 62.5 g/ha ([2]; 62.5 g ai/ha, 100=total damage to plant, 0=no damage to plant, read-out: plant damage rating, Morningglory, Ivy-leaved): 0%
- pest or weed control at 250 g/ha ([2]; 250 g ai/ha, read-out: Morningglory, Ivy-leaved damage rating (100=total damage to plant; 0=no damage to plant)): 0%
- plant injury at 15.625 g/ha (corn (Zea mays) [3]; 15.625 g ai/ha, read-out: Corn damage rating (100=total damage to plant; 0=no damage to plant)): 0%
- plant injury at 62.5 g/ha (corn (Zea mays) [3]; 62.5 g ai/ha, 100=total damage to plant, 0=no damage to plant, read-out: plant damage rating, Corn): 0%
- plant injury at 250 g/ha (corn (Zea mays) [3]; 250 g ai/ha, read-out: Corn damage rating (100=total damage to plant; 0=no damage to plant)): 0%
- pest or weed control at 15.625 g/ha ([4]; 15.625 g ai/ha, read-out: Velvetleaf damage rating (100=total damage to plant; 0=no damage to plant)): 0%
- pest or weed control at 62.5 g/ha ([4]; 62.5 g ai/ha, 100=total damage to plant, 0=no damage to plant, read-out: plant damage rating, Velvetleaf): 0%
- pest or weed control at 250 g/ha ([4]; 250 g ai/ha, read-out: Velvetleaf damage rating (100=total damage to plant; 0=no damage to plant)): 0%
- pest or weed control at 15.625 g/ha ([5]; 15.625 g ai/ha, read-out: Pigweed, Redroot damage rating (100=total damage to plant; 0=no damage to plant)): 0%
- pest or weed control at 62.5 g/ha ([5]; 62.5 g ai/ha, 100=total damage to plant, 0=no damage to plant, read-out: plant damage rating, Pigweed, Redroot): 0%
- pest or weed control at 250 g/ha ([5]; 250 g ai/ha, read-out: Pigweed, Redroot damage rating (100=total damage to plant; 0=no damage to plant)): 0%
- pest or weed control at 15.625 g/ha ([6]; 15.625 g ai/ha, read-out: Barnyard grass damage rating (100=total damage to plant; 0=no damage to plant)): 0%
- pest or weed control at 62.5 g/ha ([6]; 62.5 g ai/ha, 100=total damage to plant, 0=no damage to plant, read-out: plant damage rating, Barnyardgrass): 20%
- pest or weed control at 250 g/ha ([6]; 250 g ai/ha, read-out: Barnyardgrass damage rating (100=total damage to plant; 0=no damage to plant)): 90%
- pest or weed control at 15.625 g/ha ([7]; 15.625 g ai/ha, evaluated after 13 days (100=total damage to plant; 0=no damage to plant), read-out: Foxtail, Giant damage rating): 0%
- pest or weed control at 62.5 g/ha ([7]; 62.5 g ai/ha, evaluated after 13 days, read-out: Foxtail, Giant damage rating (100=total damage to plant; 0=no damage to plant)): 20%
- pest or weed control at 250 g/ha ([7]; 250 g ai/ha, evaluated after 13 days, read-out: damage to plant, Foxtail, Giant (100=total damage to plant; 0=no damage to plant)): 60%
- pest or weed control at 15.625 g/ha ([8]; 15.625 g ai/ha, evaluated after 13 days (100=total damage to plant; 0=no damage to plant), read-out: Morningglory, Ivy-leaved damage rating): 0%
- pest or weed control at 62.5 g/ha ([8]; 62.5 g ai/ha, evaluated after 13 days, read-out: Morningglory, Ivy-leaved damage rating (100=total damage to plant; 0=no damage to plant)): 0%
- pest or weed control at 250 g/ha ([8]; 250 g ai/ha, evaluated after 13 days, read-out: damage to plant, Morningglory, Ivy-leaved (100=total damage to plant; 0=no damage to plant)): 10%
- plant injury at 15.625 g/ha (corn (Zea mays) [9]; 15.625 g ai/ha, evaluated after 13 days (100=total damage to plant; 0=no damage to plant), read-out: Corn damage rating): 0%
- plant injury at 62.5 g/ha (corn (Zea mays) [9]; 62.5 g ai/ha, evaluated after 13 days, read-out: Corn damage rating (100=total damage to plant; 0=no damage to plant)): 0%
- plant injury at 250 g/ha (corn (Zea mays) [9]; 250 g ai/ha, evaluated after 13 days, read-out: damage to plant, Corn (100=total damage to plant; 0=no damage to plant)): 0%
- pest or weed control at 15.625 g/ha ([10]; 15.625 g ai/ha, evaluated after 13 days (100=total damage to plant; 0=no damage to plant), read-out: Velvetleaf damage rating): 0%
- pest or weed control at 62.5 g/ha ([10]; 62.5 g ai/ha, evaluated after 13 days, read-out: Velvetleaf damage rating (100=total damage to plant; 0=no damage to plant)): 0%
- pest or weed control at 250 g/ha ([10]; 250 g ai/ha, evaluated after 13 days, read-out: damage to plant, Velvetleaf (100=total damage to plant; 0=no damage to plant)): 0%
- pest or weed control at 15.625 g/ha ([11]; 15.625 g ai/ha, evaluated after 13 days (100=total damage to plant; 0=no damage to plant), read-out: Pigweed, Redroot damage rating): 0%
- pest or weed control at 62.5 g/ha ([11]; 62.5 g ai/ha, evaluated after 13 days, read-out: Pigweed, Redroot damage rating (100=total damage to plant; 0=no damage to plant)): 0%
- pest or weed control at 250 g/ha ([11]; 250 g ai/ha, evaluated after 13 days, read-out: damage to plant, Pigweed, Redroot (100=total damage to plant; 0=no damage to plant)): 0%
- pest or weed control at 15.625 g/ha ([12]; 15.625 g ai/ha, evaluated after 13 days (100=total damage to plant; 0=no damage to plant), read-out: Barnyardgrass damage rating): 0%
- pest or weed control at 62.5 g/ha ([12]; 62.5 g ai/ha, evaluated after 13 days, read-out: Barnyardgrass damage rating (100=total damage to plant; 0=no damage to plant)): 20%
- pest or weed control at 250 g/ha ([12]; 250 g ai/ha, evaluated after 13 days, read-out: damage to plant, Barnyardgrass (100=total damage to plant; 0=no damage to plant)): 60%
